How the values were obtained:
Assay type in all cases: cell-based, human
FPR2/ALX promoter = assay: Luciferase reporter gene assay of FPR2/ALX promoter constructs P-1500 and P-346 in MDA-MB231 cells; settings: MDA-MB231 cells transfected 24 h, then exposed 24 h; LXA4 10 nM, dexametasone 1 μM, IFN-γ 5-100 nM, LPS 500 nM; vs vehicle
Description: Left panel. MDA-MB231 cells were transfected with P-1500 or P-346. Twenty four hours post-transfection, cells were exposed to ethanol vehicle or 10 nM LXA4 for additional 24 h. Bars depict mean±S.D. of n=4 carried out with duplicates. *, P=0.018; **, P=0.0076 vs vehicle-treated cells. Right panel. MDA-MB231 cells were exposed to LXA4 (10 nM) for the indicated time. FPR2/ALX mRNA was quantitated by real-time PCR. Bars show mean±S.D. of n=3. *, P=0.05.
Having localized the TSS, a 1500 bp fragment of human genomic DNA (−1449/+51 from the TSS) was amplified by PCR, cloned into the promoterless pGL3 vector containing the luciferase reporter gene. For this purpose, Genomic DNA was extracted from the THP1 cells using the Wizard Genomic DNA Purification Kit (Promega, Milan, Italy). Two primers, (For 1500 bp e Rev 1500 bp, Table 1) were designed on the basis of genomic DNA sequence of 5′-flanking region of the FPR2/ALX gene to amplify a section of DNA starting −1449 bp upstream of the identified transcription start site (+1). In addition to the template (100 ng of genomic DNA) and primers For 1500 bp and Rev 1500 bp (100 ng), the reaction mixture contained 0.2 mM dNTPs, Pfu DNA polymerase buffer and 0.05 units of Jumpstart Taq DNA polymerase (Sigma-Aldrich), PCR consisted of 35 cycles of amplification (30 seconds at 94° C., 30 s at 52° C., and 120 seconds at 72° C.). PCR products were recovered from low melting agarose gel and used as template in PCR reactions using primers For 1500 and Rev 1500, added of Kpn I and Xho I restriction sites, respectively (Table 1). PCR products were resolved by 1.5% agarose gel elecrophoresis, purified and ligated into the pGL3-basic reporter vector, which was previously digested with Kpn I and Xho I restriction endonuclease. […] The promoter activity of the construct was analyzed by transfection into MCF7 and MDA-MB231 cells. […] A slightly higher activity was detected in MDA-MB231 cells (18 fold over empty vector) compared to MCF7 cells (14 fold over empty vector). […]

FPR2/ALX mRNA = FPR2/ALX mRNA expression by real time PCR in MDA-MB231 cells
FPR2/ALX protein = FPR2/ALX protein expression by flow cytometry in MDA-MB231 cells; settings: 10 μM 5-aza-dC, 72 h, Δ MFI vs untreated cells

Molecule | luciferase activity of P-1500 and P-346 (FPR2/ALX promoter) | increase in FPR2/ALX mRNA expression (FPR2/ALX mRNA; MDA-MB231 cells, 10 μM 5-aza-dC, 72 h, vs untreated cells) [fold] | increase in FPR2/ALX protein expression (FPR2/ALX protein) [fold] | FPR2/ALX mRNA levels (FPR2/ALX mRNA; MDA-MB231 cells exposed to LXA4 10 nM, real-time PCR)
C[C@@H]1C[C@H]2[C@@H]3CCC4=CC(=O)C=C[C@]4(C)[C@@]3(F)[C@@H](O)C[C@]2(C)[C@@]1(O)C(=O)CO [dexametasone] | did not give appreciable changes | – | – | –
Nc1ncn([C@H]2C[C@H](O)[C@@H](CO)O2)c(=O)n1 [5-aza-dC, 5-aza-2′-deoxycytidine] | – | ~10 | ~3 | –
CCCCCC(O)/C=C/C=C\C=C\C=C\C(O)C(O)CCCC(=O)O (stereo not drawn) [LXA4, 5,6,155-trihydroxy-7,9,11,13-trans-1′-cis-eicosatetraenoic acid] | significantly enhanced | – | – | enhanced
IFN-γ: gamma interferon, cytokine | did not give appreciable changes | – | – | –
